Reference: ChEMBL document CHEMBL1151757, “Synthesis, radiosynthesis, and biological evaluation of fluorine-18-labeled 2beta-carbo(fluoroalkoxy)-3beta-(3'-((Z)-2-haloethenyl)phenyl)nortropanes: candidate radioligands for in vivo imaging of the serotonin transporter with positron emission tomography” (J Med Chem, 2008)

Key:
[1] = Ratio of drug uptake in medulla to cerebellum in anesthetized cynomolgus monkey after 6.5 mins postinjection; assay type: ADME, organism-based, Macaca fascicularis; settings: in vivo
[2] = Drug uptake in anesthetized cynomolgus monkey brain occipital lobe after 12.5 mins postinjection; assay type: ADME, organism-based, Macaca fascicularis; settings: in vivo
[3] = Drug uptake in anesthetized cynomolgus monkey brain frontal lobe after 135 mins postinjection; assay type: ADME, organism-based, Macaca fascicularis; settings: in vivo, 2.25 h
[4] = Ratio of drug uptake in caudate to cerebellum in anesthetized cynomolgus monkey after 185 mins postinjection; assay type: ADME, organism-based, Macaca fascicularis; settings: in vivo
[5] = Ratio of drug uptake in caudate to cerebellum in anesthetized cynomolgus monkey after 195 mins postinjection; assay type: ADME, organism-based, Macaca fascicularis; settings: in vivo, 3.25 h
[6] = Drug uptake in anesthetized cynomolgus monkey brain cerebellum after 55 mins postinjection; assay type: ADME, organism-based, Macaca fascicularis; settings: in vivo
[7] = Drug uptake in anesthetized cynomolgus monkey brain cerebellum after 125 mins postinjection; assay type: ADME, organism-based, Macaca fascicularis; settings: in vivo
[8] = Drug uptake in anesthetized cynomolgus monkey brain cerebellum after 145 mins postinjection; assay type: ADME, organism-based, Macaca fascicularis; settings: in vivo
[9] = Drug uptake in awake rhesus monkey brain frontal lobe after 25 mins postinjection; assay type: ADME, organism-based, Macaca mulatta; settings: in vivo
[10] = Drug uptake in awake rhesus monkey brain frontal lobe after 75 mins postinjection; assay type: ADME, organism-based, Macaca mulatta; settings: in vivo, 1.25 h
[11] = Drug uptake in awake rhesus monkey brain medulla after 10.5 mins postinjection; assay type: ADME, organism-based, Macaca mulatta; settings: in vivo, 0.175 h
[12] = Drug uptake in awake rhesus monkey brain medulla after 35 mins postinjection; assay type: ADME, organism-based, Macaca mulatta; settings: in vivo
[13] = Drug uptake in awake rhesus monkey brain medulla after 55 mins postinjection; assay type: ADME, organism-based, Macaca mulatta; settings: in vivo
[14] = Drug uptake in awake rhesus monkey brain medulla after 65 mins postinjection; assay type: ADME, organism-based, Macaca mulatta; settings: in vivo
[15] = Drug uptake in awake rhesus monkey brain medulla after 95 mins postinjection; assay type: ADME, organism-based, Macaca mulatta; settings: in vivo
[16] = Drug uptake in awake rhesus monkey brain pons after 25 mins postinjection; assay type: ADME, organism-based, Macaca mulatta; settings: in vivo
[17] = Drug uptake in awake rhesus monkey brain pons after 75 mins postinjection; assay type: ADME, organism-based, Macaca mulatta; settings: in vivo, 1.25 h
[18] = Drug uptake in awake rhesus monkey brain midbrain after 7.5 mins postinjection; assay type: ADME, organism-based, Macaca mulatta; settings: in vivo, 0.125 h
[19] = Drug uptake in awake rhesus monkey brain midbrain after 25 mins postinjection; assay type: ADME, organism-based, Macaca mulatta; settings: in vivo
[20] = Drug uptake in awake rhesus monkey brain midbrain after 35 mins postinjection; assay type: ADME, organism-based, Macaca mulatta; settings: in vivo
[21] = Drug uptake in awake rhesus monkey brain midbrain after 55 mins postinjection; assay type: ADME, organism-based, Macaca mulatta; settings: in vivo
[22] = Drug uptake in awake rhesus monkey brain midbrain after 85 mins postinjection; assay type: ADME, organism-based, Macaca mulatta; settings: in vivo
[23] = Drug uptake in awake rhesus monkey brain midbrain after 105 mins postinjection; assay type: ADME, organism-based, Macaca mulatta; settings: in vivo, 1.75 h
[24] = Ratio of drug uptake in putamen to cerebellum in awake rhesus monkey after 45 mins postinjection; assay type: ADME, organism-based, Macaca mulatta; settings: in vivo, 0.75 h
[25] = Ratio of drug uptake in putamen to cerebellum in awake rhesus monkey after 105 mins postinjection; assay type: ADME, organism-based, Macaca mulatta; settings: in vivo, 1.75 h
[26] = Ratio of drug uptake in thalamus to cerebellum in awake rhesus monkey after 17.5 mins postinjection; assay type: ADME, organism-based, Macaca mulatta; settings: in vivo
[27] = Drug uptake in awake rhesus monkey brain putamen after 65 mins postinjection; assay type: ADME, organism-based, Macaca mulatta; settings: in vivo
[28] = Drug uptake in awake rhesus monkey brain putamen after 75 mins postinjection; assay type: ADME, organism-based, Macaca mulatta; settings: in vivo, 1.25 h
[29] = Drug uptake in awake rhesus monkey brain putamen after 95 mins postinjection; assay type: ADME, organism-based, Macaca mulatta; settings: in vivo
[30] = Drug uptake in awake rhesus monkey brain caudate after 13.5 mins postinjection; assay type: ADME, organism-based, Macaca mulatta, Caudate nucleus; settings: in vivo, 0.225 h
[31] = Drug uptake in awake rhesus monkey brain caudate after 55 mins postinjection; assay type: ADME, organism-based, Macaca mulatta, Caudate nucleus; settings: in vivo
[32] = Drug uptake in awake rhesus monkey brain caudate after 85 mins postinjection; assay type: ADME, organism-based, Macaca mulatta, Caudate nucleus; settings: in vivo
[33] = Drug uptake in awake rhesus monkey brain caudate after 95 mins postinjection; assay type: ADME, organism-based, Macaca mulatta, Caudate nucleus; settings: in vivo
[34] = Drug uptake in awake rhesus monkey brain thalamus after 10.5 mins postinjection; assay type: ADME, organism-based, Macaca mulatta; settings: in vivo, 0.175 h
[35] = Ratio of drug uptake in pons to cerebellum in awake rhesus monkey after 7.5 mins postinjection; assay type: ADME, organism-based, Macaca mulatta; settings: in vivo, 0.125 h
[36] = Ratio of drug uptake in pons to cerebellum in awake rhesus monkey after 10.5 mins postinjection; assay type: ADME, organism-based, Macaca mulatta; settings: in vivo, 0.175 h
[37] = Ratio of drug uptake in thalamus to cerebellum in awake rhesus monkey after 105 mins postinjection; assay type: ADME, organism-based, Macaca mulatta; settings: in vivo, 1.75 h
[38] = Drug uptake in awake rhesus monkey brain thalamus after 65 mins postinjection; assay type: ADME, organism-based, Macaca mulatta; settings: in vivo
[39] = Drug uptake in awake rhesus monkey brain thalamus after 95 mins postinjection; assay type: ADME, organism-based, Macaca mulatta; settings: in vivo
[40] = Ratio of drug uptake in medulla to cerebellum in awake rhesus monkey after 4.5 mins postinjection; assay type: ADME, organism-based, Macaca mulatta; settings: in vivo, 0.075 h
[41] = Drug uptake in awake rhesus monkey brain cerebellum after 25 mins postinjection; assay type: ADME, organism-based, Macaca mulatta; settings: in vivo
[42] = Drug uptake in awake rhesus monkey brain cerebellum after 45 mins postinjection; assay type: ADME, organism-based, Macaca mulatta; settings: in vivo, 0.75 h
[43] = Ratio of drug uptake in midbrain to cerebellum in awake rhesus monkey after 85 mins postinjection; assay type: ADME, organism-based, Macaca mulatta; settings: in vivo
[44] = Drug uptake in anesthetized cynomolgus monkey brain occipital lobe after 202.5 mins postinjection; assay type: ADME, organism-based, Macaca fascicularis; settings: in vivo, 3.375 h
[45] = Drug uptake in anesthetized cynomolgus monkey brain frontal lobe after 187.5 mins postinjection; assay type: ADME, organism-based, Macaca fascicularis; settings: in vivo, 3.125 h
Putamen [46] = assay: Drug uptake in anesthetized cynomolgus monkey brain putamen after 187.5 mins postinjection; assay type: ADME, organism-based, Macaca fascicularis; settings: in vivo, 3.125 h
Putamen [47] = assay: Drug uptake in anesthetized cynomolgus monkey brain putamen after 192.5 mins postinjection; assay type: ADME, organism-based, Macaca fascicularis; settings: in vivo
Putamen [48] = assay: Drug uptake in anesthetized cynomolgus monkey brain putamen after 197.5 mins postinjection; assay type: ADME, organism-based, Macaca fascicularis; settings: in vivo
Putamen [49] = assay: Drug uptake in anesthetized cynomolgus monkey brain putamen after 202.5 mins postinjection; assay type: ADME, organism-based, Macaca fascicularis; settings: in vivo, 3.375 h
Putamen [50] = assay: Drug uptake in anesthetized cynomolgus monkey brain putamen after 207.5 mins postinjection; assay type: ADME, organism-based, Macaca fascicularis; settings: in vivo
Midbrain [51] = assay: Drug uptake in anesthetized cynomolgus monkey brain midbrain after 182.5 mins postinjection; assay type: ADME, organism-based, Macaca fascicularis; settings: in vivo
Midbrain [52] = assay: Drug uptake in anesthetized cynomolgus monkey brain midbrain after 192.5 mins postinjection; assay type: ADME, organism-based, Macaca fascicularis; settings: in vivo
Midbrain [53] = assay: Drug uptake in anesthetized cynomolgus monkey brain midbrain after 197.5 mins postinjection; assay type: ADME, organism-based, Macaca fascicularis; settings: in vivo
Midbrain [54] = assay: Drug uptake in anesthetized cynomolgus monkey brain midbrain after 202.5 mins postinjection; assay type: ADME, organism-based, Macaca fascicularis; settings: in vivo, 3.375 h
Pons [55] = assay: Drug uptake in anesthetized cynomolgus monkey brain pons after 192.5 mins postinjection; assay type: ADME, organism-based, Macaca fascicularis; settings: in vivo
Pons [56] = assay: Drug uptake in anesthetized cynomolgus monkey brain pons after 197.5 mins postinjection; assay type: ADME, organism-based, Macaca fascicularis; settings: in vivo
Pons [57] = assay: Drug uptake in anesthetized cynomolgus monkey brain pons after 207.5 mins postinjection; assay type: ADME, organism-based, Macaca fascicularis; settings: in vivo
Medulla [58] = assay: Drug uptake in anesthetized cynomolgus monkey brain medulla after 192.5 mins postinjection; assay type: ADME, organism-based, Macaca fascicularis; settings: in vivo
Medulla [59] = assay: Drug uptake in anesthetized cynomolgus monkey brain medulla after 202.5 mins postinjection; assay type: ADME, organism-based, Macaca fascicularis; settings: in vivo, 3.375 h
[60] = Drug uptake in anesthetized cynomolgus monkey brain cerebellum after 192.5 mins postinjection; assay type: ADME, organism-based, Macaca fascicularis; settings: in vivo
[61] = Drug uptake in anesthetized cynomolgus monkey brain cerebellum after 197.5 mins postinjection; assay type: ADME, organism-based, Macaca fascicularis; settings: in vivo
[62] = Drug uptake in anesthetized cynomolgus monkey brain cerebellum after 202.5 mins postinjection; assay type: ADME, organism-based, Macaca fascicularis; settings: in vivo, 3.375 h
Caudate [63] = assay: Drug uptake in anesthetized cynomolgus monkey brain caudate after 182.5 mins postinjection; assay type: ADME, organism-based, Macaca fascicularis, Caudate nucleus; settings: in vivo
Caudate [64] = assay: Drug uptake in anesthetized cynomolgus monkey brain caudate after 187.5 mins postinjection; assay type: ADME, organism-based, Macaca fascicularis, Caudate nucleus; settings: in vivo, 3.125 h
Caudate [65] = assay: Drug uptake in anesthetized cynomolgus monkey brain caudate after 192.5 mins postinjection; assay type: ADME, organism-based, Macaca fascicularis, Caudate nucleus; settings: in vivo
Caudate [66] = assay: Drug uptake in anesthetized cynomolgus monkey brain caudate after 202.5 mins postinjection; assay type: ADME, organism-based, Macaca fascicularis, Caudate nucleus; settings: in vivo, 3.375 h
Caudate [67] = assay: Drug uptake in anesthetized cynomolgus monkey brain caudate after 207.5 mins postinjection; assay type: ADME, organism-based, Macaca fascicularis, Caudate nucleus; settings: in vivo
Thalamus [68] = assay: Drug uptake in anesthetized cynomolgus monkey brain thalamus after 187.5 mins postinjection; assay type: ADME, organism-based, Macaca fascicularis; settings: in vivo, 3.125 h
Thalamus [69] = assay: Drug uptake in anesthetized cynomolgus monkey brain thalamus after 192.5 mins postinjection; assay type: ADME, organism-based, Macaca fascicularis; settings: in vivo
Thalamus [70] = assay: Drug uptake in anesthetized cynomolgus monkey brain thalamus after 207.5 mins postinjection; assay type: ADME, organism-based, Macaca fascicularis; settings: in vivo

Work on O=C(OCCC[18F])C1C2CCC(CC1c1cccc(/C=C\I)c1)N2 (stereo not given) yielded a Ratio [1] of 1, a Drug uptake [2] of 3.6 and a Drug uptake [3] of 2.35. For the same compound, the Ratio [4] was 1.3, the Ratio [5] was 1.3 and the Drug uptake [6] was 4.31. It also gave a Drug uptake [7] of 2.79 and a Drug uptake [8] of 2.4.
Compound O=C(OCC[18F])C1C2CCC(CC1c1ccc(/C=C\I)cc1)N2 (stereo not given) has a Drug uptake [9] of 2.16, a Drug uptake [10] of 2.18 and a Drug uptake [11] of 1.79. The Drug uptake [12] was 2.46, the Drug uptake [13] was 2.48 and the Drug uptake [14] was 2.28. It also gave a Drug uptake [15] of 2.35, a Drug uptake [16] of 2.29 and a Drug uptake [17] of 2.75. For the same compound, the Drug uptake [18] was 1.35, the Drug uptake [19] was 2.46 and the Drug uptake [20] was 2.7. The Drug uptake [21] was 2.76, the Drug uptake [22] was 2.99 and the Drug uptake [23] was 3.24. The Ratio [24] was 1.6, the Ratio [25] was 2.5 and the Ratio [26] was 1.3. For the same compound, the Drug uptake [27] was 3.31, the Drug uptake [28] was 3.38 and the Drug uptake [29] was 3.34. For the same compound, the Drug uptake [30] was 1.87, the Drug uptake [31] was 3.11 and the Drug uptake [32] was 3.27. It also gave a Drug uptake [33] of 3.19, a Drug uptake [34] of 1.89 and a Ratio [35] of 0.9. The Ratio [36] was 0.9, the Ratio [37] was 2.8 and the Drug uptake [38] was 3.48. It also gave a Drug uptake [39] of 3.79, a Ratio [40] of 1.3 and a Drug uptake [41] of 2.12. The Drug uptake [42] was 1.93 and the Ratio [43] was 1.6.
In the case of O=C(OCCC[18F])C1C2CCC(CC1c1cccc(/C=C\Br)c1)N2 (stereo not given), the Drug uptake [44] is reported as 2.71, the Drug uptake [45] is reported as 2.39 and the Drug uptake (Putamen [46]) is reported as 3.87. For the same compound, the Drug uptake (Putamen [47]) was 3.92, the Drug uptake (Putamen [48]) was 3.78 and the Drug uptake (Putamen [49]) was 3.82. For the same compound, the Drug uptake (Putamen [50]) was 3.65, the Drug uptake (Midbrain [51]) was 4.79 and the Drug uptake (Midbrain [52]) was 4.52. The Drug uptake (Midbrain [53]) was 4.54, the Drug uptake (Midbrain [54]) was 4.46 and the Drug uptake (Pons [55]) was 3.48. For the same compound, the Drug uptake (Pons [56]) was 3.36, the Drug uptake (Pons [57]) was 3.24 and the Drug uptake (Medulla [58]) was 3.98. The Drug uptake (Medulla [59]) was 3.68, the Drug uptake [60] was 2.38 and the Drug uptake [61] was 2.16. For the same compound, the Drug uptake [62] was 2.13, the Drug uptake (Caudate [63]) was 3.95 and the Drug uptake (Caudate [64]) was 3.83. The Drug uptake (Caudate [65]) was 3.75, the Drug uptake (Caudate [66]) was 3.64 and the Drug uptake (Caudate [67]) was 3.41. The Drug uptake (Thalamus [68]) was 3.88, the Drug uptake (Thalamus [69]) was 3.83 and the Drug uptake (Thalamus [70]) was 3.35.
